# Measurements: patent US8207188B2, “Treatment of diseases modulated by a H4 receptor agonist” (priority 2006, dated 2012)
# Entries after “also recorded” stand apart in the source; their conditions may differ.
# What was measured:
# [1] = tested on: human TF1 cells that express H4R; assay: TF1 cell proliferation assay (GM-CSF promoted); assay type: cell-based; conditions: Homo sapiens, TF-1, 72 h; 10 μM, 3 days, three separate assays (n=3)
# Description: Tritoqualine was tested on a cell proliferation assay using human TF1 cells that express H4R.
# TF1 cell proliferation is promoted using granulocyte/macrophage colony-stimulating factor (GM-CSF). In this cell proliferation model H4R agonists inhibit cell proliferation. Clobenpropit (CB), a known H4R agonist at a dose of 10^−5M (10 μM) was used as a known cell proliferation inhibition control. […] Each experiment used 100,000 TF1 cells/mL incubated for three days with GM-CSF (10 ng/mL). After addition of TRQ in the range of 10^−5M (10 μM) to 10^−7 M (0.1 μM), and incubation for 3 days, cell proliferation was assessed and compared to that of 10 μM CB.
# [2] = tested on: Mouse medullary cells C57B1/6 expressing H4R; assay: Proliferation of Colony Forming Cells (CFC) in semi-solid media; assay type: cell-based; conditions: 10 μM, 7 days
# Description: Using the assay described in Example 15, above, the effect of TRQ or CB on cells expressing H4R was tested. Mouse medullary cells C57B1/6 expressing H4R (50,000 cells/Petri dish) were incubated in a semi-solid media with haematopoietic growth factors (IL-3: 10 ng/ml) for 7 days with TRQ or CB.
# Using the assay described in Example 15, above, the effect of TRQ or CB on cells expressing H4R was tested. Mouse medullary cells C57B1/6 expressing H4R (50,000 cells/Petri dish) were incubated in a semi-solid media with haematopoietic growth factors (IL-3: 10 ng/ml) for 7 days with a TRQ (racemic mixture of RR and SS isomers at 1 μM and 10 μM concentration); TRQ isomer E1 (10 μM concentration); TRQ isomer E2 (10 μM concentration) and CB (10 μM concentration).
# [3] = tested on: hematopoietic progenitor cells; assay: CFU of hematopoietic progenitor cells in the presence of Ara-C; assay type: cell-based
# Source text: Ara-C is a chemotherapeutic agent that kills cancel cells (or actively dividing cells).
# [4] = tested on: ckit positive hematopoietic progenitor cells; assay: ckit receptor expression on hematopoietic progenitor cells; assay type: cell-based; conditions: 10 μM
# Source text: In FIG. 16 the reference to CB-5, E1-5, and E2-5 is the same as above. CKit is a receptor on the surface of hematopoetic cells. Quantifying the ckit receptor is a measure of the differentiation from the progenitor state to the hematopoetic cell state.
# H4R = target: T1, H4R (Mus musculus, UniProt Q91ZY2); assay: Cell cycle status after H4R silencing with siRNA; assay type: cell-based; conditions: 10 μM; H4R siRNA transfected c-kit+ cells
# T1 construct: endogenous in cells; host or cells: freshly sorted c-kit+ haematopoietic progenitor cells
# T1 sequence (Q91ZY2 1-391): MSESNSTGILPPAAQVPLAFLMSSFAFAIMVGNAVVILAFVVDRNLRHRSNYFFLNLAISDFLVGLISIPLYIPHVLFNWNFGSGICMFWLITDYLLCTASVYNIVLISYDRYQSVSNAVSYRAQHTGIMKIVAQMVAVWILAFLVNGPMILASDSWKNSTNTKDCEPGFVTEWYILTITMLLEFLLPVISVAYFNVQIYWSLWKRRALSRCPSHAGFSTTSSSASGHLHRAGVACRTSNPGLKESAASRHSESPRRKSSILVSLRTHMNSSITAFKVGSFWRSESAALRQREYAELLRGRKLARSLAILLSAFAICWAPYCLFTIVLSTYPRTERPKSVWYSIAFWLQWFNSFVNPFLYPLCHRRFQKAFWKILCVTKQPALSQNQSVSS
# Description: H4R silencing was performed with freshly sorted c-kit^+ cells. For transfection, 3 μl of HiPerFect reagent (Qiagen; Courtaboeuf, France) and 4 μl ([…]) of human and 8 μl (80 pmol) of murine H4R siRNA, scrambled FITC-labeled or unconjugated control siRNAs (all from Santa Cruz Biotechnology) were incubated in 50 μl x-vivo medium (Cambrex; East Rutherford, N.J.) for 20 min at room temperature. The mixture was then added to 50 μl of cell suspension at a final concentration of 10^6 cells/ml and incubated for 20 h, when transfection efficiency was verified with scrambled FITC-conjugated siRNA. Cells were then centrifuged and resuspended at a concentration of 10^5 cells/ml in StemSpan medium with growth factor cocktail. The extinction of H4R protein expression was ascertained by FACS analysis after 24 h. After 3 days of culture with or without tritoqualine (10 μM) or Clobenpropit (10 μM) cells were counted and their viability was assessed by trypan blue exclusion. The cell cycle status was assessed after an overnight incubation.
# [5] = tested on: Mouse medullary cells C57B1/6 expressing H4R; assay: Percentage of cells at G0/G1 phase, TRQ racemate and enantiomers with and without CB (Example 21); assay type: cell-based; conditions: 10 μM, compared to control (GF only)
# Description: This experiment was conducted at two concentrations for all TRQ molecules (10 μM and 1 μM) in the presence and absence of CB (10 μM).
# Using the assay described in Example 15, above, the effect of TRQ or CB on cells expressing H4R was tested. Mouse medullary cells C57B1/6 expressing H4R (50,000 cells/Petri dish) were incubated in a semi-solid media with haematopoietic growth factors such as IL-3 (10 ng/ml) for 7 days with a TRQ (racemic mixture of RR and SS isomers at 1 μM and 10 μM concentration); purified TRQ isomer E1 (10 μM and 1 μM concentration); purified TRQ isomer E2 (10 μM and 1 μM concentration) and CB (10 μM concentration). […] Similar results were shown with the purified TRQ isomers. In each experiment cells were incubated in the presence of growth factors (GF, FIG. 15).
# [6] = Reintroduction of causal food allergen in food allergy patients; assay type: in vivo, human; conditions: baseline patients treated with one drug alone
# Source text: Allergens tested came from either […], or ALLERBIO.
# The direct test with the Nutella® was strongly positive for allergy. This patient was hospitalized in two occasions for the same dramatic allergic reaction to Nutella® spread. Furthermore, the patient presented allergies to pneumoallergens.
# Continuation of the above treatment for over 8 months afforded reversal of allergic and digestive symptoms due to food allergy.
# The patient under study had survived two cases of anaphylactic shock due to ingestion of shrimps. […] Later the patient was able to ingest five shrimps without any local signs and no global reaction.
# Baseline patients had signs of food allergies and the food allergy symptoms were not adequately managed with an H1 antagonist and cromoglycate. A group of 15 patients presenting signs of food allergies is tested with allergens such as the following: peanut, milk, tomato, potato, flour of wheat, soybean, fish, and shrimp. Allergens tested came from either […], or ALLERBIO.
# All patients had history of hospitalization and reactions such as Quincke's edema and asthma crisis. Most of the causal allergens were peanut (six patients), egg (four patients) and soybean (five patients) of them (with other several positive food allergens at different degrees of reaction). […]
SMILES,inhibition at 10 µM [1],"inhibition of proliferation of CFC ([2]; Example 16, IL-3 10 ng/ml)",inhibitory activity of cell proliferation (CFC) ([2]; Example 20),protection of cells / cell CFU in the presence of Ara-C [3],ckit expression [4],activity inhibiting the cell cycle at the G0/G1 phase after H4R siRNA (H4R),percentage of cells at the G0/G1 phase / inhibitory activity of cell proliferation [5],management of food allergy symptoms with the single drug [6]
"NC(=NCc1ccc(Cl)cc1)SCCCc1cnc[nH]1 [CB, N′-[(4-chlorophenyl)methyl]-1-[3-(3H-imidazol-4-yl)propylthio]formamidine]",23%,inhibits the proliferation of CFC,inhibits the proliferation of CFC,provides protection to the cells,inhibits of ckit expression,reversed,increases the percentage of cells at the G0/G1 phase; also recorded: slightly better inhibitory activity of cell proliferation compared to that of Racemic TRQ,–
CC(C)(O)c1ccccc1CC[C@@H](SCC1(CC(=O)O)CC1)c1cccc(/C=C/c2ccc3ccc(Cl)cc3n2)c1 [Montelukast®],–,–,–,–,–,–,–,did not yield satisfactory management
